Assay results from US7714014B2, “Targeting GLI proteins in human cancer by small molecules” (The Regents of the University of California, priority 2005, dated 2010).
“Also recorded” adds a separate entry of the source.

Key:
HT29 (colon cancer) = experiment: Apoptosis analysis (Annexin V FITC, flow cytometry); type: cell-based, human; conditions: for % of apoptotic cells: about 3 days
Method: (§1) Apoptosis was analyzed by using an Annexin V FITC Apoptosis Detection Kit (Biosource, Camarillo, Calif.), according to the manufacturer's protocol. After treatment with different small molecule compounds at various concentrations for about 3 days, cells were harvested by trypsinization, stained and immediately analyzed by flow cytometry (FACScan; Decton Dickinson, Franklin Lake, N.J.). Early apoptotic cells with exposed phosphatidylserine but intact cell membranes will bind to Annexin V-FITC, but not propidium iodide (PI). Cells in necrotic or late apoptotic stages will be labeled with both Annexin V-FITC and PI. “% apoptotic cells” or “% apoptosis” refers to the combined early and late apoptotic cells.
Flow cytometry was used to examine apoptosis in colon cancer cell line HT29 after treatment of cells with small molecule compounds FN1-5 and FN1-8. While FN1-5 induced apoptosis in HT29 cells (at 50 μM 35% apoptotic cells were observed; Table 2), no apoptosis was observed after treatment with FN1-8 (Table 3).

Normal muscle cells = experiment: as above; type: cell-based, human; conditions: 3 days
Method: as §1
In addition, apoptosis induction after the treatment of different doses of FN1-5 or FN1-8 in normal human muscle cells was examined by flow cytometry. Normal muscle cells were plated in 6-well plates and incubated with 1, 10, 30, and 50 μM of each compound for 3 days, as above.

[1] = system: primary cultured human mesothelioma cells; experiment: Cell survival assay (crystal violet); type: cell-based; conditions: for cell killing effect: 50 and 100 μM, 3 days
Method: Fresh cancer tissue and adjacent normal tissue from patients undergoing curative primary resection of their tumors were collected at the time of surgery (IRB approval H8714-15319-040), and immediately snap-frozen in liquid nitrogen. These tissue samples were kept at −170° C. in a liquid nitrogen freezer until further use. Primary tissue cultures were prepared as follows: Fresh cancer tissue was obtained with consent from patients undergoing resection, cut into small pieces (1-2 mm in diameter), and then digested with Collagenase A (Roche Applied Science, Indianapolis, Ind.) at room temperature for 2 hours according to manufacture's protocol. Single cells from the digestion were spun down and the cell pellets were washed twice using RPMI 1640 supplemented with 10% fetal bovine serum, penicillin (100 IU/ml) and streptomycin (100 μg/ml). Then, the cells were resuspended in the same medium and cultured in 6-well plates at 37° C. in a humid incubator with 5% CO2 until they were ready for further treatments.
(§2) Typically, the small molecule compounds of the present invention were dissolved in DMSO at a concentration of 30 mM. The small molecule compounds were then tested under cell culture conditions at different concentrations ranging from 0, 10, 30, 50, to 100 uM. To determine cell survival after treatment, the cells were incubated with the small molecule compounds in 6-well plates for about 3 days. After removal of the cell culture medium, 1-ml of 0.5% crystal violet solution (prepared in 20% ethanol and 20% methanol) was added to stain the cells for 5 min. Then the crystal violet solution was rinsed clean with tap water. Cell survival was estimated based on the density of crystal stained plates.
Next, the effect of different small molecule compounds on primary cultured human mesothelioma cells freshly made from tissue samples was examined. The primary cultures were plated in 6-well plates as described herein and incubated with 50 and 100 μM of each compound (FN1-5, FN1-7, FN1-8, and FN3-5; stocks were dissolved in DMSO at 30 mM) for 3 days. […] (FIG. 8).

[2] = system: human prostate cancer cell line LnCAP; experiment: Cell survival assay (crystal violet); type: cell-based; conditions: FN1-8 at 50 μM, FN1-5 30 and 50 μM
Method: as §2
The cell-based cytotoxicity assay described herein was used to determine the effect of small molecule compounds FN1-5 and FN1-8 on the human prostate cancer cell line LnCAP. Viability of LnCAP cells was analyzed after treatment with 30 and 50 μM FN1-5 and after treatment with 10, 30, and 50 μM FN1-8.

[3] = system: human breast cancer cell line MCF-7; experiment: Cell survival assay (crystal violet); type: cell-based; conditions: for cell killing: MCF-7, 50 μM
Method: as §2
The cell-based cytotoxicity assay described herein was used to determine the effect of small molecule compounds FN1-5 and FN1-8 in the human breast cancer cell line MCF-7. Viability of MCF-7 cells was analyzed after treatment with 30 and 50 μM FN1-5 and after treatment with 10, 30, and 50 μM FN1-8.

[4] = system: human nasopharyngeal cancer cell lines HNE1 and HONE1; experiment: Cell survival assay (crystal violet); type: cell-based; conditions: for cell killing: 50 μM
Method: as §2
The cell-based cytotoxicity assay described herein was used to determine the effect of small molecule compounds FN1-5 and FN1-8 in the human nasopharyngeal cancer cell lines HNE1 and HONE1. Viability of these cells was analyzed after treatment with 10, 30 and 50 μM FN1-5 or FN1-8.

[5] = system: Dvl-3, cytosolic β-catenin, Survivin in NSCLC cells H460, A549, and H838; experiment: Western blot of canonical Wnt signaling components; type: cell-based, human; conditions: 30 μM, 2 days; for Dvl-3 and cytosolic beta-catenin levels (Western blot): H460, A549, H838
Method: (§3) Whole proteins from cell cultures with or without treatments with small molecule compounds (30 μM for 2-3 days) were prepared using standard protocols (Pierce Biotechnology, Rockford, Ill.). Protein concentrations were measured using Bio-Rad Protein Assay reagent. Whole cell lysate protein (5-20 ug) were boiled for 5 min and separated by 10-20% SDS-PAGE. Proteins were transferred to an Immobilon-P membrane (Millipore Corp., Bedford, Mass.) using semi-dry transfer cell (Bio-Rad; Benicia, Calif.). The membranes were blocked with 5% nonfat milk powder and 0.1% Tween 20 in Tris-buffer saline overnight at 4° C. and then incubated with primary antibody for 1 h at room temperature. Membranes were washed in 5% nonfat milk powder and 0.1% Tween 20 in Tris-buffer saline for three 10-min periods. Horseradish peroxidase-conjugated goat anti-rabbit or donkey anti-mouse antibodies were used as secondary antibodies. Proteins were visualized with chemiluminescence luminol reagents (Santa Cruz Bio-technology). Anti-Dvl-3, and anti-Survivin, antibodies were from Santa Cruz Biotechnology (Santa Cruz, Calif.). Anti-Caspase3 antibody was from Oncogene (Cambridge, Mass.). Anti-β-Actin antibody was from Sigrna-Aldrich Corp. (St. Louis, Mo.). Anti-β-catenin antibody was from Transduction Laboratories (Lexington, Ky.). Anti-Cytochrome c antibody was from BD Biosciences (San Diego, Calif.). For detecting alteration of β-catenin cytosolic extracts were prepared and examined as described previously in the publications from our lab.

[6] = system: Dvl-3, cytosolic β-catenin, Survivin in colon cancer cells SW480, HT29, and CaCO2; experiment: Western blot of canonical Wnt signaling components; type: cell-based, human; conditions: 30 μM, 2 days; for Dvl-3 and cytosolic beta-catenin levels (Western blot): SW480, HT29, CaCO2
Method: as §3

| SMILES | % of apoptotic cells (HT29 (colon cancer); HT29, 10 μM) [%] | % of apoptotic cells (HT29 (colon cancer); HT29, 30 μM) [%] | % of apoptotic cells (HT29 (colon cancer); HT29, 50 μM) [%] | % of apoptotic cells (Normal muscle cells; 10 μM) [%] | % of apoptotic cells (Normal muscle cells; 30 μM) [%] | % of apoptotic cells (Normal muscle cells; 50 μM) [%] | cell killing effect [1] | cell killing [2] | cell killing [3] | cell killing [4] | Dvl-3 and cytosolic beta-catenin levels (Western blot) [5] | Dvl-3 and cytosolic beta-catenin levels (Western blot) [6] | apoptosis induction (HT29 (colon cancer); HT29, flow cytometry) | cell killing potency compared with FN1-5 ([1]; same dose) | cell killing potency compared with FN1-5 ([3]; MCF-7) | cell killing potency compared with FN1-5 [4] | Survivin level (Western blot) [5] | Survivin level (Western blot) [6] | Dvl-3 and cytosolic β-catenin levels (Western blot) ([6]; HT29 cells only) |
| --- | --- | --- | --- | --- | --- | --- | --- | --- | --- | --- | --- | --- | --- | --- | --- | --- | --- | --- | --- |
| O=C(NCCCCCO)C1C(c2ccccc2)=NN(c2ccccc2)C1c1ccccc1 (stereo not drawn) [FN1-5, N-(5-Hydroxypentyl)-1,3,5-triphenyl-4,5-dihydro-pyrazole-4-carboxyamide] | 5.8 | 15.5 | 32.9 | 7.5 | 7.6 | 8.8 | Dramatic cell killing effect | much lesser cell killing effect | dramatic cell killing | dramatic cell killing | suppress canonical Wnt signaling | suppress canonical Wnt signaling | – | – | – | – | – | – | – |
| O=C(NCCc1ccc(O)cc1)C1C(c2ccccc2)=NN(c2ccccc2)C1c1ccccc1 (stereo not drawn) [FN1-8, N-(2-(4-Hydroxyphenyl)ethyl)-1,3,5-triphenyl-4,5-dihydro-pyrazole-4-carboxyamide] | – | 3.1 | 5.3 | 7.8 | 9.3 | 9.7 | Dramatic cell killing effect | dramatic cell killing | dramatic cell killing | dramatic cell killing | dramatic down-regulation; also recorded: suppress canonical Wnt signaling | dramatic down-regulation; also recorded: suppress canonical Wnt signaling | no apoptosis | more potent than FN1-5 | more potent | more potent | down-regulated | down-regulated | no down-regulation |
